The numbers were not newly measured in patent publication US11839666B2, “Oral care article comprising a hydrophobic delivery carrier and solid hydrophilic particles comprising an agent” (The Procter & Gamble Company, priority 2020, dated 2023), which cites them from elsewhere.

The conditions of the data set: at 20 C.

Read-outs that look alike come from different tables or passages of the source.

Regarding `NC(N)=O.OO` [Urea Hydrogen Peroxide Adduct], the Solubility in water runs as follows: (per Safety Data Sheet from supplier) 800 grams per liter; (restated from Safety Data Sheet value) 80 parts per 100 parts of water.
